How the values were obtained:
[1] = DRUGMATRIX: Phosphodiesterase PDE4 enzyme inhibition (substrate: [3H]cAMP + cAMP); details: u-937, Not Active = under 50% inhibition at 10 µM
[2] = molecular target: T1, Substance-K receptor (Homo sapiens, UniProt P21452); assay type: cell membranes, CHO, Membrane; details: cho; further: in other assays of this panel Not Active means under 50% inhibition at 10 µM
T1 sequence (P21452 whole entry): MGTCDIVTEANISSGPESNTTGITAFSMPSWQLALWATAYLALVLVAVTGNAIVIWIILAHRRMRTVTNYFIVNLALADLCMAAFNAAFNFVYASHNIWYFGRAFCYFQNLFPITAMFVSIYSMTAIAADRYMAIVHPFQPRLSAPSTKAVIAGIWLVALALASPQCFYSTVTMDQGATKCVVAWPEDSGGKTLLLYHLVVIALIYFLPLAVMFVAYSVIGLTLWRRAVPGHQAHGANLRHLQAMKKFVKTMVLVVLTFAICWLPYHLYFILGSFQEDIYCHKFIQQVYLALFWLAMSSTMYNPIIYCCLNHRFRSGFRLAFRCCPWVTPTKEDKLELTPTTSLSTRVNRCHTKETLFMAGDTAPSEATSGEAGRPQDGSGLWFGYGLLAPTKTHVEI

[3] = molecular target: T2, Adenosine receptor A1 (Homo sapiens, UniProt P30542); assay type: cell membranes, CHO, Membrane; details: cho;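 further: radioligand binding assay at the adenosine A1 receptor, with DPCPX serving as the labelled ligand; in other assays of this panel Not Active means under 50% inhibition at 10 µM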
T2 sequence (P30542 whole entry): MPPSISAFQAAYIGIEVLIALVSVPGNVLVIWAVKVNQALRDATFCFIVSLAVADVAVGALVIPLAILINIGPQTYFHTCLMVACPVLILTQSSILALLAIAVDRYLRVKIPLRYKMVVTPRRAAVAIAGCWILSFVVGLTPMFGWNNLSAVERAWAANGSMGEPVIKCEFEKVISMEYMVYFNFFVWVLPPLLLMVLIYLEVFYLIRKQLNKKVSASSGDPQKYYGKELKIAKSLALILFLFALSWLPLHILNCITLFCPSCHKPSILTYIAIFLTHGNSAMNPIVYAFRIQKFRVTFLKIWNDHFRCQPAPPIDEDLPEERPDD

[4] = molecular target: cGMP-specific 3',5'-cyclic phosphodiesterase (Homo sapiens, UniProt O76074); assay: DRUGMATRIX: Phosphodiesterase PDE5 enzyme inhibition (substrate: [3H]cGMP + cGMP); assay type: tissue-based; details: platelet; Not Active = under 50% inhibition at 10 µM
[5] = molecular target: Beta-3 adrenergic receptor (Homo sapiens, UniProt P13945); assay: DRUGMATRIX: Adrenergic beta3 radioligand binding (ligand: [125I] Cyanopindolol); assay type: cell membranes, HEK293, Membrane; details: hek293; Not Active = under 50% inhibition at 10 µM
Sequence of Beta-3 adrenergic receptor (P13945 whole entry): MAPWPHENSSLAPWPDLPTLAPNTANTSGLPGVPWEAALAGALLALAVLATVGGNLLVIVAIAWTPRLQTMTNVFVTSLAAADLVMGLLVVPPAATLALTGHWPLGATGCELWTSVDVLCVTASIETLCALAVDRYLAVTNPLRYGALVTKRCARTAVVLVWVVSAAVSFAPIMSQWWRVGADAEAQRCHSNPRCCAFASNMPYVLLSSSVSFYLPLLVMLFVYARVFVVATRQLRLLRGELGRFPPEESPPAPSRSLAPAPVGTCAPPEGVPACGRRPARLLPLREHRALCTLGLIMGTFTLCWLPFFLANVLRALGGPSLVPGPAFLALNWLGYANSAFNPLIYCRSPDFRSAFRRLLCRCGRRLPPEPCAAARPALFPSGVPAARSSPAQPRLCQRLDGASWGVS

Row | Compound | IC50 [1] | Ki [1] | IC50 [2] | IC50 [3] | IC50 [4] | IC50 [5] | IC50 ([1]; read-out: IC50) [µM] | Ki [2] | Ki [3] | Ki [4] | Ki [5]
1 | Nc1nc(N)nc(NC2CC2)n1 [CYROMAZINE] | Not Active | Not Active | Not Active | Not Active | Not Active | Not Active | – | – | – | – | –
2 | CC[C@H](C)C(=O)O[C@H]1C[C@H](O)C=C2C=C[C@H](C)[C@H](CC[C@@H](O)C[C@@H](O)CC(=O)O)[C@H]21 [PRAVASTATIN] | Not Active | Not Active | Not Active | Not Active | Not Active | Not Active | – | – | – | – | –
3 | OCCN1CCN(CCCN2c3ccccc3Sc3ccc(Cl)cc32)CC1 [PERPHENAZINE] | Not Active | Not Active | Not Active | Not Active | Not Active | Not Active | – | – | – | – | –
4 | CC(C)(C)c1ccc(S(=O)(=O)/C=C/C#N)cc1 [BAY-11-7085] | Not Active | Not Active | Not Active | Not Active | Not Active | Not Active | – | – | – | – | –
5 | CCC(=O)O[C@H]1[C@H](O[C@@H]2[C@@H](C)[C@H](O[C@H]3C[C@@](C)(OC)[C@@H](O)[C@H](C)O3)[C@@H](C)C(=O)O[C@H](CC)[C@@](C)(O)[C@H](O)[C@@H](C)C(=O)[C@H](C)C[C@@]2(C)O)O[C@H](C)C[C@@H]1N(C)C [ERYTHROMYCIN PROPIONATE] | Not Active | Not Active | Not Active | Not Active | Not Active | Not Active | – | – | – | – | –
6 | C#C[C@]1(O)CC[C@H]2[C@@H]3CCc4cc(O)ccc4[C@H]3CC[C@@]21C [ETHINYL ESTRADIOL] | Not Active | Not Active | Not Active | Not Active | Not Active | Not Active | – | – | – | – | –
7 | Nc1nc(Cl)nc2c1ncn2[C@H]1C[C@H](O)[C@@H](CO)O1 [CLADRIBINE] | – | – | Not Active | Not Active | Not Active | Not Active | 3.62 | – | – | – | –
8 | CC(C)(Sc1cc(C(C)(C)C)c(O)c(C(C)(C)C)c1)Sc1cc(C(C)(C)C)c(O)c(C(C)(C)C)c1 [PROBUCOL] | Not Active | Not Active | Not Active | Not Active | Not Active | Not Active | – | – | – | – | –
9 | CN1C[C@H](C(=O)N[C@]2(C)O[C@@]3(O)[C@@H]4CCCN4C(=O)[C@H](Cc4ccccc4)N3C2=O)C[C@@H]2c3cccc4[nH]cc(c34)C[C@H]21 [DIHYDROERGOTAMINE] | Not Active | Not Active | Not Active | Not Active | Not Active | Not Active | – | – | – | – | –
10 | CC(CCc1ccc(O)cc1)NCCc1ccc(O)c(O)c1 (centres undefined) [DOBUTAMINE] | Not Active | Not Active | Not Active | Not Active | Not Active | Not Active | – | – | – | – | –
11 | POLYVINYL ALCOHOL | Not Active | Not Active | Not Active | Not Active | Not Active | Not Active | – | Not Active | Not Active | Not Active | Not Active
12 | CS(=O)(=O)OCCCCOS(C)(=O)=O [BUSULFAN] | Not Active | Not Active | Not Active | Not Active | Not Active | Not Active | – | – | – | – | –
13 | CC[C@H]1OC(=O)[C@H](C)[C@@H](O[C@H]2C[C@@](C)(OC)[C@@H](O)[C@H](C)O2)[C@H](C)[C@@H](O[C@@H]2O[C@H](C)C[C@H](N(C)C)[C@H]2O)[C@](C)(O)C[C@@H](C)CN(C)[C@H](C)[C@@H](O)[C@]1(C)O [AZITHROMYCIN] | Not Active | Not Active | Not Active | Not Active | Not Active | Not Active | – | – | – | – | –
14 | CC(=O)OCC(CCn1cnc2cnc(N)nc21)COC(C)=O [FAMCICLOVIR] | Not Active | Not Active | Not Active | Not Active | Not Active | Not Active | – | – | – | – | –
15 | C/C=C\c1ccc(O)c(OC)c1 [ISOEUGENOL] | Not Active | Not Active | Not Active | Not Active | Not Active | Not Active | – | – | – | – | –
16 | O=C(c1ccccc1Cl)N1CCC(Cc2ccccc2)CC1 | Not Active | Not Active | Not Active | Not Active | Not Active | Not Active | – | – | – | – | –
